# Measurements as given in paper PMC9962735, “Synthesis and Cytotoxic Activity of the Derivatives of N-(Purin-6-yl)aminopolymethylene Carboxylic Acids and Related Compounds” (Molecules, 2023).
# Key:
# COLO201 cells = test: Cell cycle analysis by flow cytometry (propidium iodide), COLO201; type: cell-based, human; settings: for Cell proliferation index (%) / Number of cells (%) in cell cycle phase G0/G1 / Number of cells (%) in cell cycle phase G2M / Number of cells (%) in cell cycle phase S: 24 h, M ± SD (n = 3)
# Description: To study the potential cytostatic effect of compound 1d, we chose the method of cell cycle analysis using flow cytometry by DNA staining with propidium iodide.
# To analyze possible effects on the cell cycle, we tested three concentrations of compound 1d, which were close to CC50 calculated on the basis of viability assessment data (MTT assay).
# Cell cycle analysis was performed by flow cytometry by staining DNA with propidium iodide (PI). For this, cells were seeded into 6-well plates: 2 × 10^5 COLO201 cells per well and 1.2 × 10^5 MDA-MB-231 cells per well. […] The final concentration of DMSO in the culture medium was 0.1%; an equivalent volume was added to the control cells. The plates were incubated for 24 h in a CO2 incubator. Then, cells were detached from the plastic surface using TrypLE, washed with PBS, and fixed with 70% ethanol. Next, the cells were incubated for 1 h in the dark at 4 °C, then sedimented by centrifugation at 184× g for 10 min, and washed twice with PBS. PBS (0.3 mL) containing 0.1% Triton X-100, 1 µg/mL PI, and 0.2 mg/mL RNAse A was added to the pellet, incubated for 30 min at room temperature in the dark, and analyzed on a CytoFlex flow cytometer (Beckman Coulter, Brea, CA, USA).
# The cell population in the test sample was found and gated on forward versus side scatter (FSC-A vs. SSC-A). Next, doublets were discriminated and removed via PI signal height versus PI signal area (PI-H vs. PI-A). For cell cycle phases analysis, PI-A was plotted against number of events (number of cells) (PI-A vs. Count).
# The flow cytometry data were processed using the Kaluza Analysis 2.1 software (Beckman Coulter, Brea, CA, USA). Percentages of cell populations distributed in the various phases of the cell cycle (sub-G1, G0/G1, S, and G2M) were calculated. The result was considered significant if the coefficient of variation (CV) was less than 6.
# [1] = Solubility in aqueous media; type: physicochemical; settings: result in words
structure (smiles),measurement,setting,value
CC1COc2c(ccc(F)c2F)N1C(=O)CCCCCCCCCCNc1ncnc2[nH]cnc12 (stereo not drawn) [Compound 1d],Cell proliferation index (%),"COLO201 cells; COLO201, 0.9×10–6 M",37.05%
same,Number of cells (%) in cell cycle phase G0/G1,"COLO201 cells; COLO201, 0.9×10–6 M",62.95%
same,Number of cells (%) in cell cycle phase G2M,"COLO201 cells; COLO201, 0.9×10–6 M",15.70%
same,Number of cells (%) in cell cycle phase S,"COLO201 cells; COLO201, 0.9×10–6 M",21.35%
same,Cell proliferation index (%),"COLO201 cells; COLO201, 1×10–6 M",36.78±0.29%
same,Number of cells (%) in cell cycle phase G0/G1,"COLO201 cells; COLO201, 1×10–6 M",63.21%
same,Number of cells (%) in cell cycle phase G2M,"COLO201 cells; COLO201, 1×10–6 M",15.41±0.74%
same,Number of cells (%) in cell cycle phase S,"COLO201 cells; COLO201, 1×10–6 M",21.38%
same,Cell proliferation index (%),"COLO201 cells; COLO201, 2×10–6 M",35.35%
same,Number of cells (%) in cell cycle phase G0/G1,"COLO201 cells; COLO201, 2×10–6 M",64.60%
same,Number of cells (%) in cell cycle phase G2M,"COLO201 cells; COLO201, 2×10–6 M",16.84%
same,Number of cells (%) in cell cycle phase S,"COLO201 cells; COLO201, 2×10–6 M",18.51%
same,cell cycle arrest phase,"COLO201 cells; COLO201, concentrations close to CC50, 24 h",cell cycle arrest occurred in the G2/M phase
same,cell proliferation index,"COLO201 cells; COLO201, concentrations close to CC50, 24 h, range over the concentrations",35–37%
same,solubility in aqueous media,[1],low solubility in aqueous media
